Activity calls are given as the source filed them. The rule behind the calls is not given here.
Key:
[1] = biological target: T1, Protein cereblon/Kelch-like ECH-associated protein 1 (Mus musculus) (UniProt Q9Z2X8+Q8C7D2); assay: PROTAC activity at CRBN/Keap1 in mouse AML12 cells assessed as degradation of Keap1 protein at 0.5 to 2 uM incubated for 6 to 48 hrs by Western blotting analysis; assay type: cell-based; settings: dose 0.5-2 µM, time 6-48 hrs, TDE = time-dependent effect
[2] = biological target: T1, Protein cereblon/Kelch-like ECH-associated protein 1 (Mus musculus); assay: PROTAC activity at CRBN/Keap1 in mouse AML12 cells assessed as degradation of Keap1 protein at 1 uM incubated for 24 hrs by Western blotting analysis; assay type: cell-based
[3] = biological target: T1, Protein cereblon/Kelch-like ECH-associated protein 1 (Mus musculus); assay: PROTAC activity at CRBN/Keap1 in mouse AML12 cells assessed as degradation of Keap1 protein level at 1 uM preincubated with proteasome inhibitor, MG-132 followed by compound addition and incubated for 24 hrs by Western blotting analysis; assay type: cell-based
[4] = biological target: T1, Protein cereblon/Kelch-like ECH-associated protein 1 (Mus musculus); assay: PROTAC activity at CRBN/Keap1 in mouse AML12 cells assessed as degradation of Keap1 protein level at 1 uM preincubated with MLN-4924 followed by compound addition and incubated for 24 hrs by Western blotting analysis; assay type: cell-based
[5] = biological target: Kelch-like ECH-associated protein 1 (Homo sapiens, UniProt Q14145); assay: Binding affinity to Keap1 (unknown origin) assessed as dissociation constant incubated for 200 sec by sensor chip immobilization based surface plasmon resonance analysis
Sequence of Kelch-like ECH-associated protein 1 (Q14145 whole entry): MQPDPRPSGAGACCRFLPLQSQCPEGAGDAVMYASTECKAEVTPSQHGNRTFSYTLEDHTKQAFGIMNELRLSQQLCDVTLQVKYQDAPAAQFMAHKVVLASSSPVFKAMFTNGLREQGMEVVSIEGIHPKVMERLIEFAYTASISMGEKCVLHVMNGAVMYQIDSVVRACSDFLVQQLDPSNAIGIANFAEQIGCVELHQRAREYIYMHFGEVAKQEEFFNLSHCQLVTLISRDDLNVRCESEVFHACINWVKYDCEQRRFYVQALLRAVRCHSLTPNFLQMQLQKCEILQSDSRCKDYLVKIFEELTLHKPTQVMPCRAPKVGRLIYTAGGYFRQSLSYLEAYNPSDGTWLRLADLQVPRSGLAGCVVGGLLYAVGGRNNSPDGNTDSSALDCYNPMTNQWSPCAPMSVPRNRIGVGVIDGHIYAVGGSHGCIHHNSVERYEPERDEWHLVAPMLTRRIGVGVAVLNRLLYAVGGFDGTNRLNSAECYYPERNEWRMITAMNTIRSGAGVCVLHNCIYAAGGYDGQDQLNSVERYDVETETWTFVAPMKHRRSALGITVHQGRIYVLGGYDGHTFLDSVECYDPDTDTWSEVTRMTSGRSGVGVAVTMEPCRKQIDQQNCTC

AML12 [6] = assay: Antioxidant activity against free fatty acid induced oxidative stress in mouse AML12 cells assessed as downregulation of Keap1 protein expression level at 0.125 to 0.5 uM incubated for 24 hrs by immunoblot analysis; assay type: functional, cell-based; settings: dose 0.125-0.5 µM
AML12 [7] = assay: Antioxidant activity against free fatty acid induced oxidative stress in mouse AML12 cells assessed as decrease in ROS level at 0.125 to 0.5 uM incubated for 24 hrs; assay type: functional, cell-based; settings: dose 0.125-0.5 µM
AML12 [8] = assay: Antioxidant activity against free fatty acid induced oxidative stress in mouse AML12 cells assessed as increase in GSH level at 0.125 to 0.5 uM; assay type: functional, cell-based; settings: dose 0.125-0.5 µM
AML12 [9] = assay: Antioxidant activity against free fatty acid induced oxidative stress in mouse AML12 cells assessed as increase in SOD level at 0.125 to 0.5 uM; assay type: functional, cell-based; settings: dose 0.125-0.5 µM
Mus musculus [10] = assay: Antioxidant activity against MCD diet-induced oxidative stress in C57Bl/6 mouse model of NAFLD assessed as downregulation of liver Keap1 protein expression level at 0.5 to 2 mg/kg,ip administrated for 4 weeks by immunoblot analysis; assay type: functional, organism-based; settings: dose 0.5-2 mg/kg
Mus musculus [11] = assay: Antioxidant activity against MCD diet-induced oxidative stress in C57Bl/6 mouse model of NAFLD assessed as upregulation of liver Nrf2 protein expression level at 0.5 to 2 mg/kg,ip administrated for 4 weeks by immunoblot analysis; assay type: functional, organism-based; settings: dose 0.5-2 mg/kg
Mus musculus [12] = assay: Antioxidant activity against MCD diet-induced oxidative stress in C57Bl/6 mouse model of NAFLD assessed as downregulation of liver Keap1 protein expression level at 0.5 to 2 mg/kg,ip administrated for 4 weeks by immunohistochemical staining assay; assay type: functional, organism-based; settings: dose 0.5-2 mg/kg
Mus musculus [13] = assay: Antioxidant activity against MCD diet-induced oxidative stress in C57Bl/6 mouse model of NAFLD assessed as upregulation of liver HO-1 protein expression level at 0.5 to 2 mg/kg,ip administrated for 4 weeks by immunohistochemical staining assay; assay type: functional, organism-based; settings: dose 0.5-2 mg/kg
Mus musculus [14] = assay: Antioxidant activity against MCD diet-induced oxidative stress in C57Bl/6 mouse model of NAFLD assessed as increase in CAT level in liver at 0.5 to 2 mg/kg,ip administrated for 4 weeks; assay type: functional, organism-based; settings: dose 0.5-2 mg/kg
Mus musculus [15] = assay: Antioxidant activity against MCD diet-induced oxidative stress in C57Bl/6 mouse model of NAFLD assessed as increase in SOD level in liver at 0.5 to 2 mg/kg,ip administrated for 4 weeks; assay type: functional, organism-based; settings: dose 0.5-2 mg/kg
Mus musculus [16] = assay: Antioxidant activity against MCD diet-induced oxidative stress in C57Bl/6 mouse model of NAFLD assessed as decrease in liver ROS level at 0.5 to 2 mg/kg,ip administrated for 4 weeks by immunostaining analysis; assay type: functional, organism-based; settings: dose 0.5-2 mg/kg
[17] = Toxicity in MCD diet-induced oxidative stress in C57Bl/6 mouse model of NAFLD assessed as decrease in ratio of liver weight to body weight at ip administrated for 4 weeks […]; assay type: organism-based; settings: in vivo, 672 h
Mus musculus [18] = assay: Antioxidant activity against MCD diet-induced oxidative stress in C57Bl/6 mouse model of NAFLD assessed as reduction of serum LDL-C level at ip administrated for 4 weeks; assay type: functional, organism-based
Mus musculus [19] = assay: Antioxidant activity against MCD diet-induced oxidative stress in C57Bl/6 mouse model of NAFLD assessed as reduction of serum AST level at 0.5 to 2 mg/kg,ip administrated for 4 weeks; assay type: functional, organism-based; settings: dose 0.5-2 mg/kg
Mus musculus [20] = assay: Antioxidant activity against MCD diet-induced oxidative stress in C57Bl/6 mouse model of NAFLD assessed as reduction of liver macrophage infiltration at 0.5 to 2 mg/kg,ip administrated for 4 weeks by immunostaining assay; assay type: functional, organism-based; settings: dose 0.5-2 mg/kg
Mus musculus [21] = assay: Antioxidant activity against MCD diet-induced oxidative stress in C57Bl/6 mouse model of NAFLD assessed as reduction of hepatic steatosis in liver at ip administrated for 4 weeks by hematoxylin and eosin staining based assay; assay type: functional, organism-based
[22] = Acute toxicity in zebrafish at < 5 uM observed at 48 hrs post fertilization; parameters: species or system Danio rerio; settings: in vivo
[23] = Cardiotoxicity in zebrafish at 10 uM observed at 72 hrs post fertilization; assay type: toxicity, Danio rerio
[24] = Acute toxicity in C57BL/6 mouse assessed as histopathological change in heart at 20 mg/kg,ip qd administrated for 3 consecutive days and measured on day 4 by hematoxylin and eosin staining based assay; assay type: organism-based; settings: in vivo
[25] = Acute toxicity in C57BL/6 mouse assessed as histopathological change in lung at 20 mg/kg,ip qd administrated for 3 consecutive days and measured on day 4 by hematoxylin and eosin staining based assay; assay type: organism-based; settings: in vivo
[26] = Acute toxicity in C57BL/6 mouse assessed as histopathological change in kidney at 20 mg/kg,ip qd administrated for 3 consecutive days and measured on day 4 by hematoxylin and eosin staining based assay; assay type: organism-based; settings: in vivo
[27] = Toxicity in C57BL/6 mouse assessed as histopathological change in lung at 2 mg/kg,ip qd administrated for 4 weeks by hematoxylin and eosin staining based assay; assay type: organism-based; settings: in vivo, 672 h
[28] = Toxicity in C57BL/6 mouse assessed as histopathological change in spleen at 2 mg/kg,ip qd administrated for 4 weeks by hematoxylin and eosin staining based assay; assay type: organism-based; settings: in vivo, 672 h
[29] = Toxicity in C57BL/6 mouse assessed as histopathological change in kidney at 2 mg/kg,ip qd administrated for 4 weeks by hematoxylin and eosin staining based assay; assay type: organism-based; settings: in vivo, 672 h

T1 sequence (Q8C7D2 whole entry, looked up): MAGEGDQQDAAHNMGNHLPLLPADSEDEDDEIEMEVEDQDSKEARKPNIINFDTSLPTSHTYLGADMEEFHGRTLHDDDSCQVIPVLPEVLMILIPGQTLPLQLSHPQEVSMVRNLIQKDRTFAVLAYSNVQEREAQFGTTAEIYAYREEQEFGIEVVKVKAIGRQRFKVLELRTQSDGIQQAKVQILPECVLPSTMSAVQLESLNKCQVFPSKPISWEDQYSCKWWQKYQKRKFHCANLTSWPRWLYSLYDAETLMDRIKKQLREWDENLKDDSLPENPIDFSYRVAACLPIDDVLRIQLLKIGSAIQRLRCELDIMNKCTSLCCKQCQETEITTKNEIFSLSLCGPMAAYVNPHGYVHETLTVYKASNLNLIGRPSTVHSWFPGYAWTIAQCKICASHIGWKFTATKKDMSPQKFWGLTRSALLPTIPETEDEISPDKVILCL
T1 sequence (Q9Z2X8 whole entry, looked up): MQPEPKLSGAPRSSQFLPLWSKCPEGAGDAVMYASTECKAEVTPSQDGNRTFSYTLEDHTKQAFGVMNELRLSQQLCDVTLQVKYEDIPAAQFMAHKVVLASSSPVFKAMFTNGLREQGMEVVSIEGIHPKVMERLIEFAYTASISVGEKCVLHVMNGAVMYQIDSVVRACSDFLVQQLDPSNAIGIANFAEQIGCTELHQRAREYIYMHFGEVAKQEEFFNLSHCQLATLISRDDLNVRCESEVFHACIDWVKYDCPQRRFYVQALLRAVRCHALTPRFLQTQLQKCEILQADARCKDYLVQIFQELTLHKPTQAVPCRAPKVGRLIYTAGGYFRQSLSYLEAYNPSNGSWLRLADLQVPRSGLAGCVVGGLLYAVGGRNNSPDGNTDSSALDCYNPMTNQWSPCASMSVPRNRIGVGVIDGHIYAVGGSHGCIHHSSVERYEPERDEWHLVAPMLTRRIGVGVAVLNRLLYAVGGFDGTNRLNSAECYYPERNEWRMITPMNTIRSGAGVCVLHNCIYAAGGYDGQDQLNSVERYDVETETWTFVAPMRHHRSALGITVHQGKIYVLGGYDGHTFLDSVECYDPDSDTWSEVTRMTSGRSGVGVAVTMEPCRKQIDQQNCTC

Q: What does the source list for CC1(C)CC[C@]2(C(=O)NCCCCCNc3cccc4c3C(=O)N(C3CCC(=O)NC3=O)C4=O)CC[C@]3(C)[C@H](C(=O)C=C4C5(C)C=C(C#N)C(=O)C(C)(C)[C@@H]5CC[C@]43C)[C@@H]2C1 (single isomer, unassigned)?
A: Activity [1]: Tde; Activity [2]: Active; Activity [3]: inactive; Activity [4]: inactive; Kd [5]: 11.9 µM; Activity (AML12 [6]): Active; Activity (AML12 [7]): Active; Activity (AML12 [8]): Active; Activity (AML12 [9]): Active; Activity (Mus musculus [10]): Dose-Dependent Effect; Activity (Mus musculus [11]): Dose-Dependent Effect; Activity (Mus musculus [12]): Dose-Dependent Effect; Activity (Mus musculus [13]): Dose-Dependent Effect; Activity (Mus musculus [14]): Active; Activity (Mus musculus [15]): Active; Activity (Mus musculus [16]): Active; Activity [17]: Non-Toxic; Activity (Mus musculus [18]): Dose-Dependent Effect; Activity (Mus musculus [19]): Active; Activity (Mus musculus [20]): Active; Activity (Mus musculus [21]): Dose-Dependent Effect; Activity [22]: Non-Toxic; Activity [23]: Non-Toxic; Activity [24]: Toxic; Activity [25]: Non-Toxic; Activity [26]: Non-Toxic; Activity [27]: Non-Toxic; Activity [28]: Non-Toxic; Activity [29]: Non-Toxic

— ChEMBL document CHEMBL5331129, “Discovery of NAFLD-Improving Agents by Promoting the Degradation of Keap1” (J Med Chem, 2023)
